Assays:
[1] = tested on: MCF-7 cells; assay: Test 1: growth inhibition of MCF-7 human breast cancer cells; format: cell-based; conditions: Homo sapiens, MCF7, 72 hours culture with sample, read-out: GI50 (50% growth inhibition concentration)
Method: Used in the test were MCF-7 cells which were established from human breast cancer and were cultured routinely under the conditions of 37° C. and 5% CO2, in MEM medium supplemented with 10% fetal calf serum, 25 mM of HEPES and 0.1 mg/ml of kanamycin. The MCF-7 cells in a logarithmic growth phase were treated with trypsin/EDTA to prepare single cell suspension adjusted to 4.0×10^4 cells/ml in MEM medium (supplemented with 10% fetal calf serum, 25 mM of HEPES and 0.1 mg/ml of kanamycin). Test compounds were dissolved in DMSO and diluted with RPMI 1640 medium (supplemented with 10% fetal calf serum, 25 mM of HEPES and 0.1 mg/ml of kanamycin) to a concentration of 2.0×10^−4-2.0×10^−9 M.
The cell suspension was filled in a 96-wells microplate at a rate of 0.1 ml per well and was cultured for 24 hours so as to make the cells adhered to the microplate. Then, it was added with 0.1 ml of the sample solution and cultured at 37° C. for 72 hours in 5% CO2.
50% Growth inhibition concentrations (GI50 μM) were calculated from growth inhibitions at various sample concentrations.

[2] = tested on: Human colon cancer WiDr; assay: Test 2: human colon cancer WiDr subcutaneous tumor in nude mice; format: in vivo, mutant BALA/c nude mice; conditions: intraperitoneally 200 mg/kg, once a day, six times a week, for two weeks
Method: Human colon cancer WiDr was grown as subcutaneous tumor in mutant BALA/c nude mice. 2-mm-cube tumor fragments were transplanted subcutaneously into left flank of the nude mice. When the tumor reached logarithmic growth phase, mice were divided randomly into test groups consisting five mice per group. The samples prepared by dissolving test compounds in physiological saline solution or suspending them in 1% hydroxypropyl cellulose (HPC), using an agate mortar, were intraperitoneally administered at a rate of 200 mg/kg, once a day and six times a week in total, for two weeks. Major and minor axes of the tumor mass were measured on a daily basis to calculate tumor volume. The tumor volume at each measured day was divided by that at the start day of the sample administration to calculate relative tumor growth rate; and the relative tumor growth rate of the treated groups (T) and that of the control group (C) were used to calculate T/C (%).

Row | GI50 [1] | melting point | SMILES | judgment (T/C (%) of relative tumor growth rate, last day) [2]
1 | 160 nM | 135 to 138 °C | C[C@@H]1OCCN(c2nc(N3CCOCC3)nc(-n3c(C(F)F)nc4ccccc43)n2)[C@H]1C (relative stereo) [compound 14, 2-(2-difluoromethylbenzimidazol-1-yl)-4-(trans-2,3-dimethylmorpholino)-6-morpholino-1,3,5-triazine] | + (Cases where T/C (%) of the last day was less than 50% and U-assay of Mann-Whitney revealed significant difference with one-sided risk rate of 1% were judged to be effective (+))
2 | 90 nM |  | FC(F)c1nc2ccccc2n1-c1nc(N2CCOCC2)nc(N2CCOCC2)n1 [compound 19, 2-(2-difluoromethylbenzimidazol-1-yl)-4,6-dimorpholino-1,3,5-triazine] | + (Cases where T/C (%) of the last day was less than 50% and U-assay of Mann-Whitney revealed significant difference with one-sided risk rate of 1% were judged to be effective (+))
3 | 220 nM | 169 to 171 °C | C[C@@H]1COC(C)(C)CN1c1nc(N2CCOCC2)nc(-n2c(C(F)F)nc3ccccc32)n1 [compound 20, 2-(2-difluoromethylbenzimidazol-1-yl)-4-morpholino-6-[2,2,5(R)-trimethylmorpholino]-1,3,5-triazine] | 
4 | 180 nM | 226 to 227 °C (dec.) | CC1(C)CN(c2nc(N3CCOCC3)nc(-n3c(C(F)F)nc4ccc(N)cc43)n2)CCO1 [compound 32, 2-(6-amino-2-difluoromethylbenzimidazol-1-yl)-4-(2,2-dimethylmorpholino)-6-morpholino-1,3,5-triazine] | + (Cases where T/C (%) of the last day was less than 50% and U-assay of Mann-Whitney revealed significant difference with one-sided risk rate of 1% were judged to be effective (+))
5 | 30 nM | 228 to 231 °C (dec.) | CC1(C)CN(c2nc(N3CCOCC3)nc(-n3c(C(F)F)nc4c(O)cccc43)n2)CCO1 [compound 38, 2-(2-difluoromethyl-4-hydroxybenzimidazol-1-yl)-4-(2,2-dimethylmorpholino)-6-morpholino-1,3,5-triazine] | 
6 | 60 nM | 239 to 243 °C (dec.) | CC1(C)OCCN1c1nc(N2CCOCC2)nc(-n2c(C(F)F)nc3cc(O)ccc32)n1 [compound 39, 2-(2-difluoromethyl-5-hydroxybenzimidazol-1-yl)-4-(2,2-dimethyloxazolidin-3-yl)-6-morpholino-1,3,5-triazine] | 

More lines, now with the values behind:

Row | SMILES | GI50 [1] | melting point | judgment (T/C (%) of relative tumor growth rate, last day) [2]
7 | C[C@@H]1OCCN(c2cc(N3CCOCC3)nc(-n3c(N)nc4ccccc43)n2)[C@H]1C.Cl (relative stereo) [compound 31, 2-(2-aminobenzimidazol-1-yl)-4-(trans-2,3-dimethylmorpholino)-6-morpholinopyrimidine hydrochloride] | 240 nM | 141 to 145 °C | + (Cases where T/C (%) of the last day was less than 50% and U-assay of Mann-Whitney revealed significant difference with one-sided risk rate of 1% were judged to be effective (+))
8 | C[C@@H]1OCCN(c2nc(N3CCOCC3)nc(-n3c(C(F)F)nc4ccc(N)cc43)n2)[C@@H]1C (relative stereo) [compound 33, 2-(6-amino-2-difluoromethylbenzimidazol-1-yl)-4-(2,3-cis-dimethylmorpholino)-6-morpholino-1,3,5-triazine] | 80 nM | 220 to 222 °C (dec.) | + (Cases where T/C (%) of the last day was less than 50% and U-assay of Mann-Whitney revealed significant difference with one-sided risk rate of 1% were judged to be effective (+))
9 | CC(=O)Nc1nc2ccccc2n1-c1nc(N2CCOCC2)nc(N2CCOCC2)n1 [compound 22, 2-(2-acetylaminobenzimidazol-1-yl)-4,6-dimorpholino-1,3,5-triazine] | 230 nM | 243 to 245 °C | + (Cases where T/C (%) of the last day was less than 50% and U-assay of Mann-Whitney revealed significant difference with one-sided risk rate of 1% were judged to be effective (+))
10 | COC(=O)Nc1nc2ccccc2n1-c1nc(N2CCOCC2)nc(N2CCOCC2)n1 [compound 29, 2-(2-methoxycarbonylaminobenzimidazol-1-yl)-4,6-dimorpholino-1,3,5-triazine] | 250 nM | 206 to 209 °C | 
11 | Nc1cccc2c1nc(C(F)F)n2-c1nc(N2CCOCC2)nc(N2CCOCC2)n1 [compound 34, 2-(4-amino-2-difluoromethylbenzimidazol-1-yl)-4,6-dimorpholino-1,3,5-triazine] | 80 nM | 214 to 216 °C (dec.) | 
12 | Nc1ccc2nc(C(F)F)n(-c3nc(N4CCOCC4)cc(N4CCOCC4)n3)c2c1 [compound 35, 2-(6-amino-2-difluoromethylbenzimidazol-1-yl)-4,6-dimorpholinopyrimidine] | 140 nM | 218 to 219 °C (dec.) | 
13 | Oc1ccc2c(c1)nc(C(F)F)n2-c1nc(N2CCOCC2)cc(N2CCOCC2)n1 [compound 40, 2-(2-difluoromethyl-5-hydroxybenzimidazol-1-yl)-4,6-dimorpholinopyrimidine] | 210 nM | 223 to 226 °C (dec.) | 

— patent publication US7307077B2, “Heterocyclic compound and antitumor agent containing the same as effective ingredient” (Zenyaku Kogyo Kabushiki Kaisha, priority 2001, dated 2007)
